Data from PubChem BioAssay AID2060492 (Molecular Pharmacology Branch, DTP, NCI, 2025).

System: 695427-040-R-J1-PDC complex spheroids, viability percent T/C
Test: Anticancer human tumor 695427-040-R-J1-PDC patient-derived colon adenocarcinoma cell line growth inhibition [GQUAD]
Conditions: for IC50: curve of first compound; for viability, T/C: stronger effect = lower value
Method in brief: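 Tumor cells were grown as complex spheroids with HUVEC endothelial cells and mesenchymal stem cells as stroma. G-quadruplex stabilizers were combined with targeted agents over half-log dilutions from near the clinical Cmax, or from 10 microM.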

[1] = second compound 0.0316 µM, first compound 0.0316 µM
[2] = second compound 0.0316 µM, first compound 0.1 µM
[3] = second compound 0.0316 µM, first compound 0.316 µM
[4] = second compound 0.0316 µM, first compound 1 µM
[5] = second compound 0.0316 µM, first compound 3.16 µM
[6] = second compound 0.0316 µM, first compound 10 µM
[7] = second compound 0.1 µM, first compound 0.0316 µM
[8] = second compound 0.1 µM, first compound 0.1 µM
[9] = second compound 0.1 µM, first compound 0.316 µM
[10] = second compound 0.1 µM, first compound 1 µM
[11] = second compound 0.1 µM, first compound 3.16 µM
[12] = second compound 0.1 µM, first compound 10 µM
[13] = second compound 0.316 µM, first compound 0.0316 µM
[14] = second compound 0.316 µM, first compound 0.1 µM
[15] = second compound 0.316 µM, first compound 0.316 µM
[16] = second compound 0.316 µM, first compound 1 µM
[17] = second compound 0.316 µM, first compound 3.16 µM
[18] = second compound 0.316 µM, first compound 10 µM
[19] = second compound 1 µM, first compound 0.0316 µM
[20] = second compound 1 µM, first compound 0.1 µM
[21] = second compound 1 µM, first compound 0.316 µM
[22] = second compound 1 µM, first compound 1 µM
[23] = second compound 1 µM, first compound 3.16 µM
[24] = second compound 1 µM, first compound 10 µM
[25] = second compound 3.16 µM, first compound 0.0316 µM
[26] = second compound 3.16 µM, first compound 0.1 µM
[27] = second compound 3.16 µM, first compound 0.316 µM
[28] = second compound 3.16 µM, first compound 1 µM
[29] = second compound 3.16 µM, first compound 3.16 µM
[30] = second compound 3.16 µM, first compound 10 µM
[31] = second compound 10 µM, first compound 0.0316 µM
[32] = second compound 10 µM, first compound 0.1 µM
[33] = second compound 10 µM, first compound 0.316 µM
[34] = second compound 10 µM, first compound 1 µM
[35] = second compound 10 µM, first compound 3.16 µM
[36] = second compound 10 µM, first compound 10 µM
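Further: spheroids exposed to compounds for seven days before readout.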

With `CC(=O)O[C@H]1C(=O)[C@@]2(C)[C@H]([C@H](OC(=O)c3ccccc3)[C@]3(O)C[C@H](OC(=O)[C@H](O)[C@@H](NC(=O)c4ccccc4)c4ccccc4)C(C)=C1C3(C)C)[C@]1(OC(C)=O)CO[C@@H]1C[C@@H]2O` + CN(C)c1ccc(Nc2c3ccc(NC(=O)CCN4CCCC4)cc3nc3cc(NC(=O)CCN4CCCC4)ccc23)cc1 the IC50 (second compound 0.0316 µM) was > 10 µM, the IC50 (second compound 0.1 µM) was > 10 µM and the IC50 (second compound 0.316 µM) was > 10 µM. The IC50 (second compound 1 µM) was > 10 µM, the IC50 (second compound 3.16 µM) was > 10 µM and the IC50 (second compound 10 µM) was > 10 µM. It also gave a viability, T/C [1] of 98.5%, a viability, T/C [2] of 90.7% and a viability, T/C [3] of 90.4%. For the same molecule, the viability, T/C [4] was 85.6%, the viability, T/C [5] was 84% and the viability, T/C [6] was 73.2%. For the same molecule, the viability, T/C [7] was 98.5%, the viability, T/C [8] was 87.8% and the viability, T/C [9] was 89.3%. It also gave a viability, T/C [10] of 79.8%, a viability, T/C [11] of 79.5% and a viability, T/C [12] of 68.7%. For the same molecule, the viability, T/C [13] was 106%, the viability, T/C [14] was 96% and the viability, T/C [15] was 85.5%. It also gave a viability, T/C [16] of 84.5%, a viability, T/C [17] of 82.6% and a viability, T/C [18] of 70.1%. For the same molecule, the viability, T/C [19] was 89.7%, the viability, T/C [20] was 88.4% and the viability, T/C [21] was 89.8%. For the same molecule, the viability, T/C [22] was 85.5%, the viability, T/C [23] was 76.3% and the viability, T/C [24] was 69.8%. The viability, T/C [25] was 92.8%, the viability, T/C [26] was 96.7% and the viability, T/C [27] was 88.7%. The viability, T/C [28] was 84.3%, the viability, T/C [29] was 77.4% and the viability, T/C [30] was 66.3%. For the same molecule, the viability, T/C [31] was 86.9%, the viability, T/C [32] was 84.8% and the viability, T/C [33] was 84.5%. For the same molecule, the viability, T/C [34] was 75.8%, the viability, T/C [35] was 71.2% and the viability, T/C [36] was 61.9%.
`CCCS(=O)(=O)Nc1ccc(F)c(C(=O)c2c[nH]c3ncc(-c4ccc(Cl)cc4)cc23)c1F` + CN(C)c1ccc(Nc2c3ccc(NC(=O)CCN4CCCC4)cc3nc3cc(NC(=O)CCN4CCCC4)ccc23)cc1 was tested, and the IC50 (second compound 0.0316 µM) was > 10 µM, the IC50 (second compound 0.1 µM) was > 10 µM and the IC50 (second compound 0.316 µM) was > 10 µM. The IC50 (second compound 1 µM) was > 10 µM, the IC50 (second compound 3.16 µM) was > 10 µM and the IC50 (second compound 10 µM) was > 10 µM. It also gave a viability, T/C [1] of 108%, a viability, T/C [2] of 99.9% and a viability, T/C [3] of 106%. The viability, T/C [4] was 106%, the viability, T/C [5] was 122% and the viability, T/C [6] was 68.1%. It also gave a viability, T/C [7] of 103%, a viability, T/C [8] of 94.5% and a viability, T/C [9] of 104%. It also gave a viability, T/C [10] of 109%, a viability, T/C [11] of 111% and a viability, T/C [12] of 65.9%. The viability, T/C [13] was 105%, the viability, T/C [14] was 108% and the viability, T/C [15] was 101%. It also gave a viability, T/C [16] of 106%, a viability, T/C [17] of 123% and a viability, T/C [18] of 68.3%. The viability, T/C [19] was 98.7%, the viability, T/C [20] was 99.3% and the viability, T/C [21] was 107%. For the same molecule, the viability, T/C [22] was 119%, the viability, T/C [23] was 121% and the viability, T/C [24] was 64.2%. It also gave a viability, T/C [25] of 91%, a viability, T/C [26] of 103% and a viability, T/C [27] of 94.5%. It also gave a viability, T/C [28] of 100%, a viability, T/C [29] of 110% and a viability, T/C [30] of 72.4%. For the same molecule, the viability, T/C [31] was 86.6%, the viability, T/C [32] was 89.3% and the viability, T/C [33] was 90.9%. For the same molecule, the viability, T/C [34] was 91.2%, the viability, T/C [35] was 90% and the viability, T/C [36] was 67.5%.
For `COc1cc(C2c3cc4c(cc3C(OC3OC5COC(C)OC5C(O)C3O)C3COC(=O)C23)OCO4)cc(OC)c1O` (stereo unspecified) + CN(C)c1ccc(Nc2c3ccc(NC(=O)CCN4CCCC4)cc3nc3cc(NC(=O)CCN4CCCC4)ccc23)cc1, the IC50 (second compound 0.0316 µM) was > 10 µM, the IC50 (second compound 0.1 µM) was > 10 µM and the IC50 (second compound 0.316 µM) was > 10 µM. The IC50 (second compound 1 µM) was > 10 µM, the IC50 (second compound 3.16 µM) was > 10 µM and the IC50 (second compound 10 µM) was > 10 µM. It also gave a viability, T/C [1] of 108%, a viability, T/C [2] of 90.1% and a viability, T/C [3] of 95.7%. The viability, T/C [4] was 97.8%, the viability, T/C [5] was 85.2% and the viability, T/C [6] was 80%. The viability, T/C [7] was 88.1%, the viability, T/C [8] was 91.6% and the viability, T/C [9] was 95.7%. For the same molecule, the viability, T/C [10] was 83.5%, the viability, T/C [11] was 89.8% and the viability, T/C [12] was 76.9%. The viability, T/C [13] was 100%, the viability, T/C [14] was 91.5% and the viability, T/C [15] was 88.1%. For the same molecule, the viability, T/C [16] was 89.2%, the viability, T/C [17] was 90.5% and the viability, T/C [18] was 76.7%. For the same molecule, the viability, T/C [19] was 88.9%, the viability, T/C [20] was 97.4% and the viability, T/C [21] was 94.4%. It also gave a viability, T/C [22] of 93.3%, a viability, T/C [23] of 88.1% and a viability, T/C [24] of 72.6%. The viability, T/C [25] was 89.1%, the viability, T/C [26] was 90.9% and the viability, T/C [27] was 96.7%. For the same molecule, the viability, T/C [28] was 90.3%, the viability, T/C [29] was 91% and the viability, T/C [30] was 76.5%. For the same molecule, the viability, T/C [31] was 87.2%, the viability, T/C [32] was 77.4% and the viability, T/C [33] was 81.2%. The viability, T/C [34] was 80.8%, the viability, T/C [35] was 77.5% and the viability, T/C [36] was 66.4%.
